Target: NANOLUC® Luciferase (Oplophorus gracilirostris, UniProt Q9GV45, A31E/A60N/A81I/F95D/I117V/K70R/L54V/L99Q/M102K/N193R/P142E/Q151K/Q38R/Q45L/V71I/Y165I)
Assay: Luminescence assay: substrate titration with purified NANOLUC Luciferase (RLU, signal half-life, Km)
Type: biochemical
Details: 100 μM substrate; initial light output three minutes after substrate addition; relative to furimazine set to 1.0
Protocol: Each compound to be screened was dissolved in DMSO (5 mM) and then further diluted to 100 μM in NANO-GEO® Luciferase Assay Buffer. A two-fold dilution series was prepared for each substrate by serially diluting 500 μl of the substrate solution with 500 μl of NANO-GLO® Luciferase Assay Buffer. Each diluted substrate titration was then combined in equal volumes with purified NANOLUC® Luciferase diluted into CO2 independent media+10% FBS. Initial light output for each substrate was measured in a GLOMAX®-Multi+ luminometer three minutes after substrate addition and then at five minute intervals as a means to determine signal half-life. Signal half-life was calculated using GraphPad Prism One Phase Decay regression and Km and Vmax were calculated using GraphPad Prism using Michaelis-Menten regression.
The synthesized coelenterazine analogues (compounds of formula (I) and (II)) were evaluated for their suitability as luciferase substrates. NANOLUC® luciferase was employed for the screening because it is a small (19 kDa), stable, and particularly bright enzyme. […] RLU, half-life, and Km values are for furimazine is set to 1.0. […]

NANOLUC® Luciferase, sequence (Q9GV45 28-196 with tags or gaps with the stated changes limits assumed): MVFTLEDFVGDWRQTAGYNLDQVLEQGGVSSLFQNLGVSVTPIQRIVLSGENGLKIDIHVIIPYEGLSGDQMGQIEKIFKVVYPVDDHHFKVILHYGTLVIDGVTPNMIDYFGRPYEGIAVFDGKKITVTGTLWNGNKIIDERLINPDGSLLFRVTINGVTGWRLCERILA

| SMILES | RLU (@100 μM) |
| --- | --- |
| O=c1c(Cc2ccco2)nc2c(Cc3ccccc3)[nH]c(-c3cccc(O)c3Cl)cn1-2 [JRW-1488, 8-benzyl-6-(2-chloro-3-hydroxyphenyl)-2-(furan-2-ylmethyl)imidazo[1,2-a]pyrazin-3(7H)-one] | 0.31 |
| O=c1c(Cc2ccco2)nc2c(Cc3ccccc3)[nH]c(-c3cccc(O)c3F)cn1-2 [JRW-1404, 8-benzyl-6-(2-fluoro-3-hydroxyphenyl)-2-(furan-2-ylmethyl)imidazo[1,2-a]pyrazin-3(7H)-one] | 1.2 |
| O=c1c(Cc2ccc(C(F)(F)F)o2)nc2c(Cc3ccccc3)[nH]c(-c3cccc(O)c3F)cn1-2 [JRW-1619, 8-benzyl-6-(2-fluoro-3-hydroxyphenyl)-2-((5-(trifluoromethyl)furan-2-yl)methyl)imidazo[1,2-a]pyrazin-3(7H)-one] | 0.85 |
| Nc1ccc(F)c(-c2cn3c(=O)c(Cc4ccco4)nc-3c(Cc3ccccc3)[nH]2)c1 [JRW-1411, 6-(5-amino-2-fluorophenyl)-8-benzyl-2-(furan-2-ylmethyl)imidazo[1,2-a]pyrazin-3(7H)-one] | 0.001 |
| O=c1c(Cc2ccco2)nc2c(Cc3ccccc3)[nH]c(-c3cc(O)cc(Cl)c3)cn1-2 [JRW-1479, 8-benzyl-6-(3-chloro-5-hydroxyphenyl)-2-(furan-2-ylmethyl)imidazo[1,2-a]pyrazin-3(7H)-one] | 0.43 |
| COc1cccc(Cc2nc3c(Cc4ccccc4)[nH]c(-c4cccc(O)c4)cn-3c2=O)c1 [JRW-1047, 8-benzyl-6-(3-hydroxyphenyl)-2-(3-methoxybenzyl)imidazo[1,2-a]pyrazin-3(7H)-one] | 0.5 |
| O=c1c(Cc2ccco2)nc2c(Cc3ccccc3)[nH]c(-c3cc(O)cc(F)c3)cn1-2 [JRW-1526, 8-benzyl-6-(3-fluoro-5-hydroxyphenyl)-2-(furan-2-ylmethyl)imidazo[1,2-a]pyrazin-3(7H)-one] | 1.0 |
| Nc1cccc(-c2cn3c(=O)c(Cc4ccc(F)cc4)nc-3c(Cc3ccccc3)[nH]2)c1F [JRW-1635, 6-(3-amino-2-fluorophenyl)-8-benzyl-2-(4-fluorobenzyl)imidazo[1,2-a]pyrazin-3(7H)-one] | 1.0 |
| Nc1cccc(-c2cn3c(=O)c(Cc4ccc(C(F)(F)F)o4)nc-3c(Cc3ccccc3)[nH]2)c1F [JRW-1610, 6-(3-amino-2-fluorophenyl)-8-benzyl-2-((5-(trifluoromethyl)furan-2-yl)methyl)imidazo[1,2-a]pyrazin-3(7H)-one] | 0.71 |
| COCc1cccc(Cc2nc3c(Cc4ccccc4)[nH]c(-c4cccc(O[Si](C)(C)C(C)(C)C)c4)cn-3c2=O)c1 [JRW-0372, 8-benzyl-6-(3-((tert-butyldimethylsilyl)oxy)phenyl)-2-(3-(methoxymethyl)benzyl)imidazo[1,2-a]pyrazin-3(7H)-one] | 0.00033 |
| Cc1cccc(Cc2[nH]c(-c3cccc(O)c3)cn3c(=O)c(Cc4ccco4)nc2-3)c1 [JRW-1368, 2-(furan-2-ylmethyl)-6-(3-hydroxyphenyl)-8-(3-methylbenzyl)imidazo[1,2-a]pyrazin-3(7H)-one] | 0.032 |
| Cc1c(N)cccc1-c1cn2c(=O)c(Cc3ccco3)nc-2c(Cc2ccccc2)[nH]1 [JRW-1642, 6-(3-amino-2-methylphenyl)-8-benzyl-2-(furan-2-ylmethyl)imidazo[1,2-a]pyrazin-3(7H)-one] | 0.04 |
| Nc1cccc(-c2cn3c(=O)c(Cc4ccco4)nc-3c(Cc3c(F)cccc3F)[nH]2)c1F [JRW-1747, 6-(3-amino-2-fluorophenyl)-8-(2,6-difluorobenzyl)-2-(furan-2-ylmethyl)imidazo[1,2-a]pyrazin-3(7H)-one] | 2.1 |
| Nc1cc(F)cc(-c2cn3c(=O)c(Cc4ccco4)nc-3c(Cc3ccccc3)[nH]2)c1 [JRW-1535, 6-(3-amino-5-fluorophenyl)-8-benzyl-2-(furan-2-ylmethyl)imidazo[1,2-a]pyrazin-3(7H)-one] | 0.73 |

From patent publication US11691976B2, “Coelenterazine analogues” (PROMEGA CORPORATION, priority 2018, dated 2023)
